Experimental data as given in patent US10590078B2, “Sodium channel blockers” (Daewoong Pharmaceutical Co., Ltd., priority 2015, dated 2020).

Target: human sodium ion channel 1.7 (hNav1.7) (Homo sapiens, UniProt Q15858)
Test: Blocking effect against sodium ion channel Nav1.7, IonFlux16 auto patch clamp in hNav1.7 HEK293 cells
Assay type: cell-based
Settings: hNav1.7 HEK293 cells; inhibition of peak current after 50 seconds treatment; eight concentrations; read-out: IC50

Sequence of human sodium ion channel 1.7 (hNav1.7) (Q15858 whole entry): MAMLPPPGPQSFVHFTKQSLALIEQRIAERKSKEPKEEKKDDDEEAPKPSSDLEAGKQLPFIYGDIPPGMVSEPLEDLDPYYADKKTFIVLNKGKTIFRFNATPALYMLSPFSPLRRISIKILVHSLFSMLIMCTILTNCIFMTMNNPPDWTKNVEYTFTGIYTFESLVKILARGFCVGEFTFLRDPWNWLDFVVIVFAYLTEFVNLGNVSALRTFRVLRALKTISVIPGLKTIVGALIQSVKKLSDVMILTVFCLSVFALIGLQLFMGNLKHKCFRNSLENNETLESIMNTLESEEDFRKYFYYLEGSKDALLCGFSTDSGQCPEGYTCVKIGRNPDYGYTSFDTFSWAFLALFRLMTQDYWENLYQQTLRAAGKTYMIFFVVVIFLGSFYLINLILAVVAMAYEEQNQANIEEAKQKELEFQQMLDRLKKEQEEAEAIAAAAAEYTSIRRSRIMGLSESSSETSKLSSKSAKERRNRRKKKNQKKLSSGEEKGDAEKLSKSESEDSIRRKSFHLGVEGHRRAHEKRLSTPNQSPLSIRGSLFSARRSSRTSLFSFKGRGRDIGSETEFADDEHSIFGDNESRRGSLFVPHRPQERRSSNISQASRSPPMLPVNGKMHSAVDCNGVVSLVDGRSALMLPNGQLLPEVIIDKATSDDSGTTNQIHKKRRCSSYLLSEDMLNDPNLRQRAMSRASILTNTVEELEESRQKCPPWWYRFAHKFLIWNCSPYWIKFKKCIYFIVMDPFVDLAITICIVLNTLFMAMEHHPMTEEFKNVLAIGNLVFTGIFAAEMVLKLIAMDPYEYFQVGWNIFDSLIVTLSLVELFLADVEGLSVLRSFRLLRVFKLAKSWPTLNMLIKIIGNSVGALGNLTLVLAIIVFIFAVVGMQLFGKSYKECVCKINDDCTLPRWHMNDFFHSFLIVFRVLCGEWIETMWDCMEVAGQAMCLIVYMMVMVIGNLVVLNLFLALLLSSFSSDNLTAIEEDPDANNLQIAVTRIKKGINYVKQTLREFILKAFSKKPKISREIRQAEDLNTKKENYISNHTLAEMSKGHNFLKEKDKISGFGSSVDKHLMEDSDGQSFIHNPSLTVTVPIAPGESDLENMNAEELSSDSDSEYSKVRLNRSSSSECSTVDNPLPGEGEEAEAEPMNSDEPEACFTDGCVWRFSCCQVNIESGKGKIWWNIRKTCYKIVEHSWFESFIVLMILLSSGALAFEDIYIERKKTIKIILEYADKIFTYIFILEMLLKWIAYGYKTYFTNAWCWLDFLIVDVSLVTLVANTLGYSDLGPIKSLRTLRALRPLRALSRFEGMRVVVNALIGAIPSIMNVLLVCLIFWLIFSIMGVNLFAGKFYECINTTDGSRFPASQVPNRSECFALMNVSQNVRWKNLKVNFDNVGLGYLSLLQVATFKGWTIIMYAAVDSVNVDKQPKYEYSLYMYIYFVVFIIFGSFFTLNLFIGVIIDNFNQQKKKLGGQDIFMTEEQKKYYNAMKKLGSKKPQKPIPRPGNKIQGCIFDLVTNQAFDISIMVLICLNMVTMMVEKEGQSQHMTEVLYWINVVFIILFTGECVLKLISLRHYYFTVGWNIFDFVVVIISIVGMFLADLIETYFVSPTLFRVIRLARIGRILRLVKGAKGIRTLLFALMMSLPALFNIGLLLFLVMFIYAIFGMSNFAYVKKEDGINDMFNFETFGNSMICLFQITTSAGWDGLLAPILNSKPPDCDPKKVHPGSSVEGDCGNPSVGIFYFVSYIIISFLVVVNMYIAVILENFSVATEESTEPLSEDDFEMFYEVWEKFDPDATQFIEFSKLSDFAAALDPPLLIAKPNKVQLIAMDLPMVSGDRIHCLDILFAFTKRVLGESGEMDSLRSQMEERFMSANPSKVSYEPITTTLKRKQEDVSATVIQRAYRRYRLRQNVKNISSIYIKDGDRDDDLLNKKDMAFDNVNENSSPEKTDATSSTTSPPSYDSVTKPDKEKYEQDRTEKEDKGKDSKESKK

Compound | IC50
CS(=O)(=O)NC(=O)c1ccc(-n2nc(-c3cncc(Cl)c3)c3cc(Cl)ccc32)c(C#N)c1 [Example 104, 4-(5-chloro-3-(5-chloropyridin-3-yl)-1H-indazol-1-yl)-3-cyano-N-(methylsulfonyl)benzamide] | > 10000 nM
CS(=O)(=O)NC(=O)c1ccc(-n2nc(-c3ccc(F)cc3F)c3cc(Cl)ccc32)c(C#N)c1 [Example 105, 4-(5-chloro-3-(2,4-difluorophenyl)-1H-indazol-1-yl)-3-cyano-N-(methylsulfonyl)benzamide] | 957 nM
COc1ncccc1-c1nn(-c2ccc(C(=O)NS(C)(=O)=O)cc2C#N)c2ccc(Cl)cc12 [Example 106, 4-(5-chloro-3-(2-methoxypyridin-3-yl)-1H-indazol-1-yl)-3-cyano-N-(methylsulfonyl)benzamide] | 6020 nM
COc1ccccc1-c1nn(-c2cc(Cl)c(C(=O)NS(C)(=O)=O)cc2F)c2ccc(Cl)cc12 [Example 107, 2-chloro-4-(5-chloro-3-(2-methoxyphenyl)-1H-indazol-1-yl)-5-fluoro-N-(methylsulfonyl)benzamide] | 811 nM
CS(=O)(=O)NC(=O)c1cc(F)c(-n2nc(-c3cccc(C(F)(F)F)c3)c3cc(Cl)ccc32)cc1Cl [Example 110, 2-chloro-4-(5-chloro-3-(3-(trifluoromethyl)phenyl)-1H-indazol-1-yl)-5-fluoro-N-(methylsulfonyl)benzamide] | 267 nM
CS(=O)(=O)NC(=O)c1cc(F)c(-n2nc(-c3ccc(C(F)(F)F)cc3)c3cc(Cl)ccc32)cc1Cl [Example 111, 2-chloro-4-(5-chloro-3-(4-(trifluoromethyl)phenyl)-1H-indazol-1-yl)-5-fluoro-N-(methylsulfonyl)benzamide] | 552 nM
CS(=O)(=O)NC(=O)c1cc(F)c(-n2nc(-c3ccc(F)cc3)c3cc(Cl)ccc32)cc1Cl [Example 112, 2-chloro-4-(5-chloro-3-(4-fluorophenyl)-1H-indazol-1-yl)-5-fluoro-N-(methylsulfonyl)benzamide] | 789 nM
CS(=O)(=O)NC(=O)c1cc(F)c(-n2nc(-c3ccccc3F)c3cc(Cl)ccc32)cc1Cl [Example 113, 2-chloro-4-(5-chloro-3-(2-fluorophenyl)-1H-indazol-1-yl)-5-fluoro-N-(methylsulfonyl)benzamide] | 752 nM
CS(=O)(=O)NC(=O)c1cc(F)c(-n2nc(-c3cccc(F)c3)c3cc(Cl)ccc32)cc1Cl [Example 114, 2-chloro-4-(5-chloro-3-(3-fluorophenyl)-1H-indazol-1-yl)-5-fluoro-N-(methylsulfonyl)benzamide] | 1440 nM
CS(=O)(=O)NC(=O)c1cc(F)c(-n2nc(-c3ccc(F)cc3F)c3cc(Cl)ccc32)cc1Cl [Example 115, 2-chloro-4-(5-chloro-3-(2,4-difluorophenyl)-1H-indazol-1-yl)-5-fluoro-N-(methylsulfonyl)benzamide] | 727 nM
COc1ccccc1-c1nn(-c2ccc(C(=O)NS(C)(=O)=O)cc2F)c2ccc(Cl)cc12 [Example 117, 4-(5-chloro-3-(2-methoxyphenyl)-1H-indazol-1-yl)-3-fluoro-N-(methylsulfonyl)benzamide] | 640 nM
COc1ccc(-c2nn(-c3ccc(C(=O)NS(C)(=O)=O)cc3F)c3ccc(Cl)cc23)cc1 [Example 118, 4-(5-chloro-3-(4-methoxyphenyl)-1H-indazol-1-yl)-3-fluoro-N-(methylsulfonyl)benzamide] | 360 nM
CS(=O)(=O)NC(=O)c1ccc(-n2nc(-c3ccc(C(F)(F)F)cc3)c3cc(Cl)ccc32)c(F)c1 [Example 122, 4-(5-chloro-3-(4-(trifluoromethyl)phenyl)-1H-indazol-1-yl)-3-fluoro-N-(methylsulfonyl)benzamide] | 310 nM
CS(=O)(=O)NC(=O)c1ccc(-n2nc(-c3ccc(F)cc3)c3cc(Cl)ccc32)c(F)c1 [Example 123, 4-(5-chloro-3-(4-fluorophenyl)-1H-indazol-1-yl)-3-fluoro-N-(methylsulfonyl)benzamide] | 350 nM
CS(=O)(=O)NC(=O)c1ccc(-n2nc(-c3cccc(F)c3)c3cc(Cl)ccc32)c(F)c1 [Example 125, 4-(5-chloro-3-(3-fluorophenyl)-1H-indazol-1-yl)-3-fluoro-N-(methylsulfonyl)benzamide] | 560 nM
CS(=O)(=O)NC(=O)c1ccc(-n2nc(-c3ccccc3)c3cc(Cl)ccc32)cc1F [Example 127, 4-(5-chloro-3-phenyl-1H-indazol-1-yl)-2-fluoro-N-(methylsulfonyl)benzamide] | 3940 nM
CS(=O)(=O)NC(=O)c1ccc(-n2nc(-c3ccc(Cl)cc3F)c3cc(Cl)ccc32)nc1 [Example 128, 6-(5-chloro-3-(4-chloro-2-fluorophenyl)-1H-indazol-1-yl)-N-(methylsulfonyl)nicotinamide] | 1330 nM
Cn1cc(-c2nn(-c3cc(F)c(C(=O)NS(C)(=O)=O)cc3Cl)c3ccc(Cl)cc23)ccc1=O [Example 130, 5-chloro-4-(5-chloro-3-(1-methyl-6-oxo-1,6-dihydropyridin-3-yl)-1H-indazol-1-yl)-2-fluoro-N-(methylsulfonyl)benzamide] | > 10000 nM
CC(C)(C)OC(=O)N1CC=C(c2nn(-c3cc(F)c(C(=O)NS(C)(=O)=O)cc3Cl)c3ccc(Cl)cc23)CC1 [Example 131, tert-butyl 4-(5-chloro-1-(2-chloro-5-fluoro-4-((methylsulfonyl)carbamoyl)phenyl)-1H-indazol-3-yl)-3,6-dihydropyridine-1(2H)-carboxylate] | 2600 nM
CS(=O)(=O)NC(=O)c1cc(Cl)c(-n2nc(C3=CCNCC3)c3cc(Cl)ccc32)cc1F [Example 132, 5-chloro-4-(5-chloro-3-(1,2,3,6-tetrahydropyridin-4-yl)-1H-indazol-1-yl)-2-fluoro-N-(methylsulfonyl)benzamide] | > 10000 nM
CS(=O)(=O)NC(=O)c1cc(Cl)c(-n2nc(/C=C/c3ccccc3)c3cc(Cl)ccc32)cc1F [Example 133, (E)-5-chloro-4-(5-chloro-3-styryl-1H-indazol-1-yl)-2-fluoro-N-(methylsulfonyl)benzamide] | 120 nM
CS(=O)(=O)NC(=O)c1cc(Cl)c(-n2nc(/C=C/c3ccccc3Cl)c3cc(Cl)ccc32)cc1F [Example 136, (E)-5-chloro-4-(5-chloro-3-(2-chlorostyryl)-1H-indazol-1-yl)-2-fluoro-N-(methylsulfonyl)benzamide] | 1010 nM

Continued by falling IC50, values first:

IC50 | Compound
3890 nM | CS(=O)(=O)NC(=O)c1ccc(-n2nc(-c3ccc(C#N)cc3)c3cc(Cl)ccc32)c(F)c1 [Example 120, 4-(5-chloro-3-(4-cyanophenyl)-1H-indazol-1-yl)-3-fluoro-N-(methylsulfonyl)benzamide]
3000 nM | COc1ncccc1-c1nn(-c2cc(Cl)c(C(=O)NS(C)(=O)=O)cc2F)c2ccc(Cl)cc12 [Example 116, 2-chloro-4-(5-chloro-3-(2-methoxypyridin-3-yl)-1H-indazol-1-yl)-5-fluoro-N-(methylsulfonyl)benzamide]
2170 nM | CS(=O)(=O)NC(=O)c1ccc(-n2nc(-c3cccc(F)c3)c3cc(Cl)ccc32)c(C#N)c1 [Example 103, 4-(5-chloro-3-(3-fluorophenyl)-1H-indazol-1-yl)-3-cyano-N-(methylsulfonyl)benzamide]
2170 nM | CS(=O)(=O)NC(=O)c1cc(Cl)c(-n2nc(/C=C/c3ccccn3)c3cc(Cl)ccc32)cc1F [Example 134, (E)-5-chloro-4-(5-chloro-3-(2-(pyridin-2-yl)vinyl)-1H-indazol-1-yl)-2-fluoro-N-(methylsulfonyl)benzamide]
1790 nM | CS(=O)(=O)NC(=O)c1ccc(-n2nc(-c3cccc(C#N)c3)c3cc(Cl)ccc32)c(F)c1 [Example 119, 4-(5-chloro-3-(3-cyanophenyl)-1H-indazol-1-yl)-3-fluoro-N-(methylsulfonyl)benzamide]
1740 nM | CC(C)(O)C#Cc1nn(-c2cc(F)c(C(=O)NS(C)(=O)=O)cc2Cl)c2ccc(Cl)cc12 [Example 129, 5-chloro-4-(5-chloro-3-(3-hydroxy-3-methylbut-1-yn-1-yl)-1H-indazol-1-yl)-2-fluoro-N-(methylsulfonyl)benzamide]
1480 nM | COc1ccc(-c2nn(-c3cc(Cl)c(C(=O)NS(C)(=O)=O)cc3F)c3ccc(Cl)cc23)cc1 [Example 108, 2-chloro-4-(5-chloro-3-(4-methoxyphenyl)-1H-indazol-1-yl)-5-fluoro-N-(methylsulfonyl)benzamide]
1090 nM | CS(=O)(=O)NC(=O)c1ccc(-n2nc(-c3cccc(C(F)(F)F)c3)c3cc(Cl)ccc32)c(F)c1 [Example 121, 4-(5-chloro-3-(3-(trifluoromethyl)phenyl)-1H-indazol-1-yl)-3-fluoro-N-(methylsulfonyl)benzamide]
990 nM | CS(=O)(=O)NC(=O)c1ccc(-n2nc(-c3ccc(Cl)cc3)c3cc(Cl)ccc32)c(F)c1 [Example 126, 4-(5-chloro-3-(4-chlorophenyl)-1H-indazol-1-yl)-3-fluoro-N-(methylsulfonyl)benzamide]
680 nM | CS(=O)(=O)NC(=O)c1cc(Cl)c(-n2nc(/C=C/c3ccc(C(F)(F)F)cc3)c3cc(Cl)ccc32)cc1F [Example 137, (E)-5-chloro-4-(5-chloro-3-(4-(trifluoromethyl)styryl)-1H-indazol-1-yl)-2-fluoro-N-(methylsulfonyl)benzamide]
450 nM | CS(=O)(=O)NC(=O)c1cc(F)c(-n2nc(-c3cccc(C#N)c3)c3cc(Cl)ccc32)cc1Cl [Example 109, 2-chloro-4-(5-chloro-3-(3-cyanophenyl)-1H-indazol-1-yl)-5-fluoro-N-(methylsulfonyl)benzamide]
370 nM | CS(=O)(=O)NC(=O)c1cc(Cl)c(-n2nc(/C=C/c3ccccc3F)c3cc(Cl)ccc32)cc1F [Example 135, (E)-5-chloro-4-(5-chloro-3-(2-fluorostyryl)-1H-indazol-1-yl)-2-fluoro-N-(methylsulfonyl)benzamide]
290 nM | CS(=O)(=O)NC(=O)c1ccc(-n2nc(-c3ccccc3F)c3cc(Cl)ccc32)c(F)c1 [Example 124, 4-(5-chloro-3-(2-fluorophenyl)-1H-indazol-1-yl)-3-fluoro-N-(methylsulfonyl)benzamide]
